Laboratory results: ChEMBL document CHEMBL3045770, “Design and synthesis of some thieno[2,3-c]pyridazine derivatives of expected anticancer activity” (2013)

What was measured:
Format in all cases: functional
M14 = assay: Cytotoxicity against Homo sapiens (human) M14 assessed as cell growth at 10 uM after 48 hr by SRB assay relative to control; settings: M14, 48 h, read-out: Activity
HOP-92 = assay: Cytotoxicity against Homo sapiens (human) HOP92 assessed as cell growth at 10 uM after 48 hr by SRB assay relative to control; settings: HOP-92, 48 h, read-out: Activity
EKVX = assay: Cytotoxicity against Homo sapiens (human) EKVX assessed as cell growth at 10 uM after 48 hr by SRB assay relative to control; settings: read-out: Activity
HCT-116 = assay: Cytotoxicity against Homo sapiens (human) HCT116 assessed as cell growth at 10 uM after 48 hr by SRB assay relative to control; settings: HCT-116, 48 h, read-out: Activity
HL-60(TB) = assay: Cytotoxicity against Homo sapiens (human) HL-60(TB) assessed as cell growth at 10 uM after 48 hr by SRB assay relative to control; settings: HL-60, 48 h, read-out: Activity
NCI-H460 = assay: Cytotoxicity against Homo sapiens (human) NCI-H460 assessed as cell growth at 10 uM after 48 hr by SRB assay relative to control; settings: NCI-H460, 48 h, read-out: Activity
SW-620 = assay: Cytotoxicity against Homo sapiens (human) SW620 assessed as cell growth at 10 uM after 48 hr by SRB assay relative to control; settings: SW-620, 48 h, read-out: Activity
MOLT-4 = assay: Cytotoxicity against Homo sapiens (human) MOLT4 assessed as cell growth at 10 uM after 48 hr by SRB assay relative to control; settings: MOLT-4, 48 h, read-out: Activity
SF-268 = assay: Cytotoxicity against Homo sapiens (human) SF268 assessed as cell growth at 10 uM after 48 hr by SRB assay relative to control; settings: SF-268, 48 h, read-out: Activity
HCT-15 = assay: Cytotoxicity against Homo sapiens (human) HCT15 assessed as cell growth at 10 uM after 48 hr by SRB assay relative to control; settings: HCT-15, 48 h, read-out: Activity
TK-10 = assay: Cytotoxicity against Homo sapiens (human) TK10 assessed as cell growth at 10 uM after 48 hr by SRB assay relative to control; settings: TK-10, 48 h, read-out: Activity
SF-295 = assay: Cytotoxicity against Homo sapiens (human) SF295 assessed as cell growth at 10 uM after 48 hr by SRB assay relative to control; settings: SF-295, 48 h, read-out: Activity
Hs-578T = assay: Cytotoxicity against Homo sapiens (human) Hs 578T assessed as cell growth at 10 uM after 48 hr by SRB assay relative to control; settings: read-out: Activity
OVCAR-8 = assay: Cytotoxicity against Homo sapiens (human) OVCAR8 assessed as cell growth at 10 uM after 48 hr by SRB assay relative to control; settings: OVCAR-8, 48 h, read-out: Activity
COLO 205 = assay: Cytotoxicity against Homo sapiens (human) COLO205 assessed as cell growth at 10 uM after 48 hr by SRB assay relative to control; settings: COLO 205, 48 h, read-out: Activity
CAKI-1 = assay: Cytotoxicity against Homo sapiens (human) Caki1 assessed as cell growth at 10 uM after 48 hr by SRB assay relative to control; settings: CAKI-1, 48 h, read-out: Activity
A549 = assay: Cytotoxicity against Homo sapiens (human) A549 assessed as cell growth at 10 uM after 48 hr by SRB assay relative to control; settings: A549, 48 h, read-out: Activity
MDA-MB-231 = assay: Cytotoxicity against Homo sapiens (human) MDA-MB-231 assessed as cell growth at 10 uM after 48 hr by SRB assay relative to control; settings: MDA-MB-231, 48 h, read-out: Activity
MCF7 = assay: Cytotoxicity against Homo sapiens (human) MCF7 assessed as cell growth at 10 uM after 48 hr by SRB assay relative to control; settings: MCF7, 48 h, read-out: Activity
BT-549 = assay: Cytotoxicity against Homo sapiens (human) BT549 assessed as cell growth at 10 uM after 48 hr by SRB assay relative to control; settings: BT-549, 48 h, read-out: Activity
CCRF-CEM = assay: Cytotoxicity against Homo sapiens (human) CCRF-CEM assessed as cell growth at 10 uM after 48 hr by SRB assay relative to control; settings: read-out: Activity
KM12 = assay: Cytotoxicity against Homo sapiens (human) KM12 assessed as cell growth at 10 uM after 48 hr by SRB assay relative to control; settings: KM12, 48 h, read-out: Activity
NCI-H522 = assay: Cytotoxicity against Homo sapiens (human) NCI-H522 assessed as cell growth at 10 uM after 48 hr by SRB assay relative to control; settings: NCI-H522, 48 h, read-out: Activity
T47D = assay: Cytotoxicity against Homo sapiens (human) T47D assessed as cell growth at 10 uM after 48 hr by SRB assay relative to control; settings: read-out: Activity
SNB-19 = assay: Cytotoxicity against Homo sapiens (human) SNB19 assessed as cell growth at 10 uM after 48 hr by SRB assay relative to control; settings: SNB-19, 48 h, read-out: Activity
MDA-MB-468 = assay: Cytotoxicity against Homo sapiens (human) MDA-MB-468 assessed as cell growth at 10 uM after 48 hr by SRB assay relative to control; settings: MDA-MB-468, 48 h, read-out: Activity
SR = assay: Cytotoxicity against Homo sapiens (human) SR assessed as cell growth at 10 uM after 48 hr by SRB assay relative to control; settings: read-out: Activity
SNB-75 = assay: Cytotoxicity against Homo sapiens (human) SNB75 assessed as cell growth at 10 uM after 48 hr by SRB assay relative to control; settings: SNB-75, 48 h, read-out: Activity
NCI-H226 = assay: Cytotoxicity against Homo sapiens (human) NCI-H226 assessed as cell growth at 10 uM after 48 hr by SRB assay relative to control; settings: NCI-H226, 48 h, read-out: Activity
OVCAR-5 = assay: Cytotoxicity against Homo sapiens (human) OVCAR5 assessed as cell growth at 10 uM after 48 hr by SRB assay relative to control; settings: OVCAR-5, 48 h, read-out: Activity
UACC-257 = assay: Cytotoxicity against Homo sapiens (human) UACC257 assessed as cell growth at 10 uM after 48 hr by SRB assay relative to control; settings: UACC-257, 48 h, read-out: Activity
NCI-H23 = assay: Cytotoxicity against Homo sapiens (human) NCI-H23 assessed as cell growth at 10 uM after 48 hr by SRB assay relative to control; settings: NCI-H23, 48 h, read-out: Activity
[1] = Cytotoxicity against Homo sapiens (human) NCI-ADR-RES assessed as cell growth at 10 uM after 48 hr by SRB assay relative to control; settings: read-out: Activity

| Structure (SMILES) | growth at 10 µM (M14) | growth at 10 µM (HOP-92) | growth at 10 µM (EKVX) | growth at 10 µM (HCT-116) | growth at 10 µM (HL-60(TB)) | growth at 10 µM (NCI-H460) | growth at 10 µM (SW-620) | growth at 10 µM (MOLT-4) | growth at 10 µM (SF-268) | growth at 10 µM (HCT-15) | growth at 10 µM (TK-10) | growth at 10 µM (Hs-578T) | growth at 10 µM (OVCAR-8) | growth at 10 µM (COLO 205) | growth at 10 µM (MDA-MB-231) | growth at 10 µM (BT-549) | growth at 10 µM (CCRF-CEM) | growth at 10 µM (KM12) | growth at 10 µM (NCI-H522) | growth at 10 µM (T47D) | further results |
| --- | --- | --- | --- | --- | --- | --- | --- | --- | --- | --- | --- | --- | --- | --- | --- | --- | --- | --- | --- | --- | --- |
| Oc1c(-c2n[nH]c(=S)o2)sc2nnc(-c3ccccc3)c(-c3ccccc3)c12 | 99.5% | 72.3% | 102% | 103% | 101% | 116% | 124% | 91% | 102% | 103% | 103% | 121% | 106% | 106% | 109% | 99.5% | 96.1% | 119% | 102% | 105% | growth at 10 µM (SF-295): 112%; growth at 10 µM (CAKI-1): 93.3%; growth at 10 µM (A549): 107%; growth at 10 µM (MCF7): 92%; growth at 10 µM (SNB-19): 103%; growth at 10 µM (MDA-MB-468): 108%; growth at 10 µM (SR): 83.4%; growth at 10 µM (SNB-75): 72.6%; growth at 10 µM (NCI-H226): 91.5%; growth at 10 µM (OVCAR-5): 102%; growth at 10 µM (UACC-257): 97% |
| Oc1c(-c2nnc(SCc3ccccc3)o2)sc2nnc(-c3ccccc3)c(-c3ccccc3)c12 | 108% | 52.5% | 122% | 83.3% | 69.8% | 111% | 109% | 86% | 103% | 93.6% | 92.9% | 135% | 104% | 122% | 97.9% | 107% | 66.8% | 107% | 88.5% | 104% | growth at 10 µM (NCI-H23): 106%; growth at 10 µM [1]: 93.5%; growth at 10 µM (CAKI-1): 114%; growth at 10 µM (MCF7): 82.2%; growth at 10 µM (SNB-19): 103%; growth at 10 µM (MDA-MB-468): 101%; growth at 10 µM (SR): 106%; growth at 10 µM (SNB-75): 87.8%; growth at 10 µM (NCI-H226): 101%; growth at 10 µM (OVCAR-5): 98.8%; growth at 10 µM (UACC-257): 134% |
| CNc1nnc(-c2sc3nnc(-c4ccccc4)c(-c4ccccc4)c3c2O)s1 | 107% | 116% | 112% | 102% | 107% | 106% | 105% | 93.3% | 106% | 98.9% | 108% | 109% | 104% | 131% | 104% | 101% | 110% | 126% | 111% | 97.6% | growth at 10 µM (NCI-H23): 115%; growth at 10 µM (SF-295): 91.7%; growth at 10 µM [1]: 105%; growth at 10 µM (CAKI-1): 72%; growth at 10 µM (MCF7): 88.7%; growth at 10 µM (SNB-19): 105%; growth at 10 µM (MDA-MB-468): 92.6%; growth at 10 µM (SR): 78.2%; growth at 10 µM (SNB-75): 87.9%; growth at 10 µM (NCI-H226): 106%; growth at 10 µM (OVCAR-5): 96.5%; growth at 10 µM (UACC-257): 94.5% |
| Oc1c(-c2nnc(-c3ccccc3)o2)sc2nnc(-c3ccccc3)c(-c3ccccc3)c12 | 69.6% | 81.7% | 94.1% | 47.4% | 83.2% | 39.8% | 64.4% | 47.9% | 85.5% | 36.6% | 90.6% | 97% | 66.8% | 102% | 89.2% | 74.9% | 47.7% | 72.3% | 97.2% | 81.1% | growth at 10 µM (NCI-H23): 90.4%; growth at 10 µM (SF-295): 42.9%; growth at 10 µM [1]: 18.8%; growth at 10 µM (CAKI-1): 29.1%; growth at 10 µM (MCF7): 58%; growth at 10 µM (SNB-19): 57.2%; growth at 10 µM (MDA-MB-468): 64.7%; growth at 10 µM (SR): 46.8%; growth at 10 µM (SNB-75): 84.4%; growth at 10 µM (NCI-H226): 85%; growth at 10 µM (OVCAR-5): 106%; growth at 10 µM (UACC-257): 99.8% |
| CCOC(=O)c1c(Nc2ccc(S(=O)(=O)Nc3nccs3)cc2)nnc(-c2ccccc2)c1-c1ccccc1 | 104% | 84.3% | 102% | 98.6% | 104% | 111% | 131% | 79.3% | 112% | 106% | 109% | 118% | 102% | 114% | 115% | 98.9% | 91.3% | 114% | 103% | 104% | growth at 10 µM (SF-295): 101%; growth at 10 µM (CAKI-1): 107%; growth at 10 µM (A549): 110%; growth at 10 µM (SNB-19): 108%; growth at 10 µM (MDA-MB-468): 110%; growth at 10 µM (SR): 76.2%; growth at 10 µM (SNB-75): 104%; growth at 10 µM (NCI-H226): 102%; growth at 10 µM (OVCAR-5): 117%; growth at 10 µM (UACC-257): 104% |
| CC(=O)Oc1c(C2=NN(C(C)=O)C(c3ccc(F)cc3)O2)sc2nnc(-c3ccccc3)c(-c3ccccc3)c12 (stereo unspecified) | 102% | 46.2% | 113% | 80.5% | 83.8% | 101% | 97.4% | 55.1% | 89.6% | 61.1% | 94.1% | 120% | 101% | 117% | 85.9% | 65.3% | 39.1% | 81.7% | 80.4% | 90% | growth at 10 µM (NCI-H23): 103%; growth at 10 µM [1]: 85.3%; growth at 10 µM (MCF7): 73.7%; growth at 10 µM (SNB-19): 82.6%; growth at 10 µM (MDA-MB-468): 84%; growth at 10 µM (SR): 79.3%; growth at 10 µM (SNB-75): 78.1%; growth at 10 µM (NCI-H226): 92.4%; growth at 10 µM (OVCAR-5): 95.3%; growth at 10 µM (UACC-257): 113% |
